Blank lines part the entries; values can stand above or below the molecule they belong to.
Columns and labels:
[1] = MTT cytotoxicity assay, WI-38 normal cells; format: cell-based; details: human, WI-38 lung fibroblasts (normal cells), WI-38, 72 h incubation, MTT, n = 3 (Table 3)
Text: (§1) The cytotoxicity of the test compounds was studied using the MTT assay against a number of cell lines: CT-26 murine colon carcinoma, 4T1 murine mammary carcinoma, MDA-MB-231 human breast adenocarcinoma, COLO201 human colorectal adenocarcinoma, HepG2 human hepatocellular carcinoma, A549 human non-small-cell lung carcinoma, SK-BR-3 human breast adenocarcinoma, SNU-1 human gastric carcinoma, Jurkat human acute T-lymphoblastic leukemia, and WI-38 human lung fibroblasts (normal cells). Doxorubicin (Dox) was used as a reference drug. Cells were incubated with test compounds for 72 h.
(§2) Cells were seeded in flat-bottomed 96-well plates at 10,000 cells per well (for A549, SNU-1, WI-38, CT-26, MDA-MB-231, 4T1, and HepG2 cells) or 20,000 cells per well (for SK-BR-3, Jurkat, and COLO201 cells) and cultivated in complete culture mediums (for composition of each medium, see the Supplementary Materials, Table S1) in a CO2 incubator at 37 °C. At the first stage of this study, the test compounds dissolved in DMSO were added to the wells with cells at final concentrations from 1 × 10^–4 to 1 × 10^–10 mol/L (A549, SK-BR-3, SNU-1, Jurkat, and WI-38) or 1 × 10^–3 to 1 × 10^–8 mol/L (CT-26, MDA-MB-231, 4T1, COLO201, and HepG2); DMSO concentration in the wells was finally 1%. A complete cultural medium and DMSO were added to the control wells at the same concentration as in the experimental wells; 0.1% Triton X-100 solution (10 µL) was added to the corresponding wells as a non-specific positive control. After adding the test compounds, the cells were incubated for 72 h in an atmosphere containing 5% CO2. After that, the nutrient medium was removed from each well (in the case of SK-BR-3, Jurkat, and COLO201, plates were pre-centrifuged at 1500 rpm for 6 min). A solution of the commercial anticancer agent Doxorubicin (Dox, Sigma-Aldrich, St. Louis, MO, USA) in DMSO was used as a reference drug. Then, 150 µL of a complete medium with the MTT reagent (PanEco, Moscow, Russia) at a concentration of 0.5 mg/mL was added and incubated for 2 h. Formazan crystals were dissolved in DMSO (200 µL) and the absorbance in the wells was measured at 540 nm and a reference wavelength of 650 nm (Sunrise, Tecan, Groding, Austria). Experiments were performed in three parallel runs. Cell viability after incubation in the presence of test compounds was calculated in relation to cell viability in the control wells according to the Formula (1):Cell viability (%) = (Aexp/Ac) × 100,(1) where Aexp is the optical density of solutions in the wells containing test compounds; Ac is the optical density of solutions in control wells without test compounds. For detailed information on cell viability of various cell lines, see the Supplementary Materials, Figures S21–S26.
(§3) At the second stage of this study, in order to more accurately calculate the CC50 (the half maximal inhibitory concentration), the cytotoxic effect of test compounds was evaluated at concentrations close to CC50 found at the first stage. The study of the cytotoxic activity of each substance towards the cells of each line was carried out in triplicate; the mean value was used to calculate CC50. The CC50 values were determined by non-linear regression analysis using Graph-Pad Prism7.

[2] = system: SK-BR-3 human breast adenocarcinoma; assay: MTT cytotoxicity assay, SK-BR-3; format: cell-based; details: Homo sapiens, SK-BR-3, 72 h, SK-BR-3, 72 h incubation, MTT, n = 3 (Table 3)
Text: as §1, §2, §3

[3] = system: A549, SK-BR-3, SNU-1, Jurkat, WI-38 cell lines; assay: MTT cytotoxicity assay, cell line panel (result in words); format: cell-based, human; details: 72 h
Text: as §1
The cytotoxicity of compounds 2a–c, 6, 7, and 9 was also studied using the MTT assay against a number of tumor cell lines: A549, SK-BR-3, SNU-1, Jurkat, as well as normal fibroblasts WI-38 (Table 3).
as §2, §3

[4] = system: Jurkat human acute T-lymphoblastic leukemia; assay: MTT cytotoxicity assay, Jurkat; format: cell-based; details: Homo sapiens, Jurkat, 72 h, 72 h incubation, MTT, n = 3 (Table 3)
Text: as §1, §2, §3

[5] = system: SNU-1 human gastric carcinoma; assay: MTT cytotoxicity assay, SNU-1; format: cell-based; details: Homo sapiens, SNU1, 72 h, SNU-1, 72 h incubation, MTT, n = 3 (Table 3)
Text: as §1, §2, §3

[6] = system: A549 human non-small-cell lung carcinoma; assay: MTT cytotoxicity assay, A549; format: cell-based; details: Homo sapiens, A549, 72 h, A549, 72 h incubation, MTT, n = 3 (Table 3)
Text: as §1, §2, §3

[7] = MTT cytotoxicity assay, SK-BR-3; format: cell-based, human; details: human, CC50 of WI-38 divided by CC50 of SK-BR-3 (Table 3); read-out: SCI (selective cytotoxicity index)
Text: as §1, §2, §3

[8] = MTT cytotoxicity assay, Jurkat; format: cell-based, human; details: human, CC50 of WI-38 divided by CC50 of Jurkat (Table 3); read-out: SCI (selective cytotoxicity index)
Text: as §1, §2, §3

[9] = MTT cytotoxicity assay, SNU-1; format: cell-based, human; details: human, CC50 of WI-38 divided by CC50 of SNU-1 (Table 3); read-out: SCI (selective cytotoxicity index)
Text: as §1, §2, §3

[10] = MTT cytotoxicity assay, A549; format: cell-based, human; details: human, CC50 of WI-38 divided by CC50 of A549 (Table 3); read-out: SCI (selective cytotoxicity index)
Text: as §1, §2, §3

melting point: 41 to 42 °C
Structure (SMILES): C[C@H]1COc2c(ccc(F)c2F)N1C(=O)CCCCCCCCC(=O)N1c2ccc(F)c(F)c2OC[C@@H]1C (hydrate or solvate) [(S)-9, 1,10-bis((S)-7,8-Difluoro-3-methyl-2H-benzo[b][1,4]oxazin-4(3H)-yl)decan-1,10-dione]

Structure (SMILES): C[C@H]1COc2c(ccc(F)c2F)N1C(=O)CCCCCCCCC(=O)N1c2ccc(F)c(F)c2OC[C@@H]1C [(S)-9, 1,10-bis((S)-7,8-Difluoro-3-methyl-2H-benzo[b][1,4]oxazin-4(3H)-yl)decan-1,10-dione]
CC50 at 72 h [1]: > 100 µM
CC50 [2]: > 100 µM
cytotoxic activity (in words) [3]: did not exhibit cytotoxic activity
CC50 [4]: > 100 µM
CC50 [5]: > 100 µM
CC50 [6]: > 100 µM

Structure (SMILES): COc1cccc2c1C(=O)c1c(O)c3c(c(O)c1C2=O)C[C@@](O)(C(=O)CO)C[C@@H]3O[C@H]1C[C@H](N)[C@H](O)[C@H](C)O1 [Dox, Doxorubicin, reference compound]
CC50 at 72 h [1]: 0.23 µM
selectivity ratio at 72 h [7]: 0.15
CC50 [2]: 1.5 µM
CC50 [4]: 0.12 µM
selectivity ratio at 72 h [8]: 1.9
CC50 [5]: 0.14 µM
selectivity ratio at 72 h [9]: 1.6
CC50 [6]: 0.22 µM
selectivity ratio at 72 h [10]: 1

Structure (SMILES): CC1COc2c(ccc(F)c2F)N1C(=O)CCCCCCCCC(=O)N1c2ccc(F)c(F)c2OCC1C (stereo not drawn) [Compound 9, 1,10-bis(-7,8-Difluoro-3-methyl-2H-benzo[b][1,4]oxazin-4(3H)-yl)decan-1,10-dione]
CC50 at 72 h [1]: > 100 µM
CC50 [2]: > 100 µM
cytotoxic activity (in words) [3]: did not exhibit cytotoxic activity
CC50 [4]: > 100 µM
CC50 [5]: > 100 µM
CC50 [6]: > 100 µM

melting point: 198 to 199 °C
Structure (SMILES): O=C(O)CCCCCCCCCCCCCCNc1ncnc2nc[nH]c12 [Compound 2c, N-(Purin-6-yl)-15-aminopentadecanoic Acid]
CC50 at 72 h [1]: > 100 µM
CC50 [2]: > 100 µM
cytotoxic activity (in words) [3]: no cytotoxic activity
CC50 [4]: > 100 µM
CC50 [5]: > 100 µM
CC50 [6]: > 100 µM

Structure (SMILES): O=C(O)CCCCCCCCCCCNc1ncnc2nc[nH]c12 [Compound 2b, N-(Purin-6-yl)-12-aminododecanoic Acid]
CC50 at 72 h [1]: > 100 µM
CC50 [2]: > 100 µM
cytotoxic activity (in words) [3]: cytotoxic only against the Jurkat cell line
CC50 [4]: 49 µM
CC50 [5]: > 100 µM
CC50 [6]: > 100 µM

melting point: 103 to 104 °C
Structure (SMILES): CC1COc2c(ccc(F)c2F)N1C(=O)CCCCCCCCC(=O)N1c2ccc(F)c(F)c2OCC1C (stereo not drawn) (hydrate or solvate) [Compound 9, 1,10-bis(-7,8-Difluoro-3-methyl-2H-benzo[b][1,4]oxazin-4(3H)-yl)decan-1,10-dione]

Structure (SMILES): CC1COc2c(ccc(F)c2F)N1C(=O)CNc1ncnc2[nH]cnc12 (stereo not drawn) [Compound 1a]
CC50 at 72 h [1]: > 100 µM
CC50 [2]: > 100 µM
cytotoxic activity (in words) [3]: non-cytotoxic
CC50 [4]: > 100 µM
CC50 [5]: > 100 µM
CC50 [6]: > 100 µM

melting point: 172 to 174 °C
Structure (SMILES): O=C(O)CCCCCCCCCCNc1ncnc2nc[nH]c12 [Compound 2a, N-(Purin-6-yl)-11-aminoundecanoic Acid]
CC50 at 72 h [1]: > 100 µM
CC50 [2]: > 100 µM
cytotoxic activity (in words) [3]: cytotoxic only against the Jurkat cell line
CC50 [4]: 59 µM
selectivity ratio at 72 h [8]: ≥ 1.7
CC50 [5]: > 100 µM
CC50 [6]: > 100 µM

Structure (SMILES): CC(=O)OCCOCn1cnc2c(NCCCCCCCCCCC(=O)N3c4ccc(F)c(F)c4OCC3C)ncnc21 (stereo not drawn) [Compound 6, {11-[9-(2-Acetoxyethoxy)methylpurin-6-yl]aminoundecanoyl]-7,8-difluoro-3,4-dihydro-3-methyl-2H-[1,4]benzoxazine]
CC50 at 72 h [1]: 30 µM
selectivity ratio at 72 h [7]: 0.08
CC50 [2]: 370 µM
cytotoxic activity (in words) [3]: approximately the same cytotoxicity as the most active compound 1d
CC50 [4]: 10 µM
selectivity ratio at 72 h [8]: 3
CC50 [5]: 5.6 µM
selectivity ratio at 72 h [9]: 5.4
CC50 [6]: 15 µM
selectivity ratio at 72 h [10]: 2

— PMC9962735, “Synthesis and Cytotoxic Activity of the Derivatives of N-(Purin-6-yl)aminopolymethylene Carboxylic Acids and Related Compounds” (Molecules, 2023)
